Measurements published in patent US6653089B2, “Differential treatment of selected parts of a single cell with different fluid components” (President and Fellows of Harvard College, priority 2000, dated 2003).

Key:
[1] = system: BCE cells (actin filaments); assay: Partial treatment of single BCE cells with a membrane-permeable actin disrupting drug in a two-component laminar flow stream; assay type: cell-based, Bovine; settings: for actin cytoskeleton after treatment (phalloidin Alexa 594 stain): about 10 min
Experimental: (§1) Bovine adrenal capillary endothelial (BCE) cells were cultured and harvested as described in D. E. Ingber & J. Folkman, J. Cell Biol., Vol. 109, pp. 317-330, 1989, incorporated herein by reference. In brief, cells were cultured under 10% CO2 on Petri dishes (Falcon) coated with gelatin in DMEM (GIBCO) containing 10% calf serum (CS), 2 mM glutamine, 100 μg/ml streptomycin, 100 μg/ml penicillin, and 1 ng/ml basic fibroblast growth factor (bFGF). Cells were dissociated from culture plates with trypsin/EDTA and washed in DMEM containing 1% wt/vol BSA (BSA/DMEM). These cells were suspended in chemically defined medium (10 μg/ml high density lipoprotein/5 μg/ml transferrin/5 ng/ml bFGF in BSA/DMEM) as described in D. E. Ingber, Proc. Natl. Acad. Sci. USA, Vol. 87, pp. 3579-3583 (1990), incorporated herein by reference, introduced into capillary networks (pretreated with 50 μg/ml fibronectin for 1 hr) from the inlet wells, and incubated in 10% CO2 at 37° C. for 4-6 hr to permit attachment and spreading upon the glass cover slip forming the bottom of the microchannel network. After the above incubation to allow for binding and attachment, non-adherent cells were removed by washing each of the flow channels with media (1% wt/vol. BSA/DMEM) for about 3 min. at a maximum bulk flow velocity of about 0.6 cm/s (Re<1).
Device fabrication and cell culture and attachment of BCE cells was performed as described above in Example 1. Creation and maintenance of flow in the channels and selection and observation of a BCE cell positioned straddling the interface of two components of the flow stream established in the main flow channel was performed in a similar fashion as described previously in Example 1.
In the present example, prior to selective treatment of a portion of a single BCE cell with a membrane-permeable actin disrupting drug, the BCE cells attached to the microfluidic network were uniformly exposed to media containing Mitotracker Green™ FM mitochondrial stain, as described in Example 2, in order to uniformly stain the mitochondria of each of the BCE cells in the microfluidic channels. Subsequent to mitochondrial staining, partial cell treatment with the actin disrupting drug was accomplished by filling right-most well 316 (see FIG. 3A) of the microfluidic channel network with media containing latrunculin A (1 μM in DMEM/10% CS). Similar media, except not including the latrunculin A, was added to inlet wells 312 and 314, and flow was maintained during the experiment as described previously in Example 1. […]

BCE cells = assay: Intracellular gradient formation of a membrane permeable nucleic acid binding dye in a single BCE cell; assay type: cell-based, Bovine; settings: 60 μM Syto 9 in DMEM/10% CS over one portion of the cell, dye-free media over the other
Experimental: as §1, with “After the above incubation to allow for binding and attachment, non-adherent cells were removed by washing each of the flow channels with media (1% wt/vol. BSA/DMEM) for about 3 min. at a maximum bulk flow velocity of about 0.6 cm/s (Re<1).” left out
The flowing streams and attached BCEs were visualized utilizing a fluorescence inverted microscope, as illustrated in FIG. 3B. […]

C/C1=C/C(=O)O[C@@H]2C[C@@H](CC[C@H](C)/C=C\C=C\CC1)O[C@@](O)([C@@H]1CSC(=O)N1)C2 [latrunculin A]
displacement of mitochondria and nucleus on local actin disruption ([1]; center cell, latrunculin A supplied to right-hand portion only, peripheral cell shape relatively unchanged): caused the mitochondria and nucleus to shift towards the left
actin cytoskeleton after treatment (phalloidin Alexa 594 stain) ([1]; center cell, only right-hand part exposed to latrunculin A-containing media, 1 μM): greatest degree of actin disruption evident in its treated, right side portion
positions of the mitochondria (Mitotracker Green FM stained) ([1]; center cell, right-hand part exposed to 1 μM latrunculin A for 10 min): have shifted towards the left-hand (untreated) part of the cell
actin cytoskeleton after treatment (phalloidin Alexa 594 stain) ([1]; rightmost cell fully exposed to latrunculin A-containing media, 1 μM in DMEM/10% CS): a substantial portion of the actin cytoskeleton appears, in the rightmost cell, to be depolymerized

Syto 9
time until intracellular diffusion reached approximately its steady state value (BCE cells): about 10 minutes
